ChEMBL document CHEMBL1275296, “Synthesis and antimicrobial studies of thiazolotriazinones” (2010)
Converted amounts (≈) assume the structure as drawn. The source made the active and inactive calls. No cut-off for these calls is given here.

Experiments:
Streptococcus pyogenes [1] = assay: Antibacterial activity against Streptococcus pyogenes after 24 hrs; format: functional
Pseudomonas aeruginosa [2] = assay: Antibacterial activity against Pseudomonas aeruginosa after 24 hrs by broth dilution method; format: functional
[3] = system: Trichophyton mentagrophytes; assay: Antifungal activity against Trichophyton mentagrophytes after 48 hrs; format: functional
Klebsiella pneumoniae [4] = assay: Antibacterial activity against Klebsiella pneumoniae after 24 hrs; format: functional
Aspergillus flavus [5] = assay: Antifungal activity against Aspergillus flavus by measuring inhibition zone after 48 hrs; format: functional
Pseudomonas aeruginosa [6] = assay: Antibacterial activity against Pseudomonas aeruginosa after 24 hrs; format: functional
Aspergillus fumigatus [7] = assay: Antifungal activity against Aspergillus fumigatus at >100 ug/mL after 48 hrs; format: functional, organism-based
Talaromyces marneffei [8] = assay: Antifungal activity against Penicillium marneffei by measuring inhibition zone after 48 hrs; format: functional
Aspergillus flavus [9] = assay: Antifungal activity against Aspergillus flavus after 48 hrs; format: functional
Staphylococcus aureus [10] = assay: Antibacterial activity against Staphylococcus aureus after 24 hrs; format: functional
Talaromyces marneffei [11] = assay: Antifungal activity against Penicillium marneffei after 48 hrs; format: functional
Klebsiella pneumoniae [12] = assay: Antibacterial activity against Klebsiella pneumoniae after 24 hrs by broth dilution method; format: functional
Candida albicans [13] = assay: Antifungal activity against Candida albicans after 48 hrs; format: functional
[14] = system: Trichophyton mentagrophytes; assay: Antifungal activity against Trichophyton mentagrophytes by measuring inhibition zone after 48 hrs; format: functional
Streptococcus pyogenes [15] = assay: Antibacterial activity against Streptococcus pyogenes after 24 hrs by broth dilution method; format: functional
Staphylococcus aureus [16] = assay: Antibacterial activity against Staphylococcus aureus after 24 hrs by broth dilution method; format: functional
Candida albicans [17] = assay: Antifungal activity against Candida albicans by measuring inhibition zone after 48 hrs; format: functional
Escherichia coli [18] = assay: Antibacterial activity against Escherichia coli at >100 ug/mL after 24 hrs by broth dilution method; format: functional, organism-based
Escherichia coli [19] = assay: Antibacterial activity against Escherichia coli after 24 hrs; format: functional
Aspergillus fumigatus [20] = assay: Antifungal activity against Aspergillus fumigatus after 48 hrs; format: functional
Klebsiella pneumoniae [21] = assay: Antibacterial activity against Klebsiella pneumoniae at >100 ug/mL after 24 hrs by broth dilution method; format: functional, organism-based
Escherichia coli [22] = assay: Antibacterial activity against Escherichia coli after 24 hrs by broth dilution method; format: functional
Aspergillus fumigatus [23] = assay: Antifungal activity against Aspergillus fumigatus by measuring inhibition zone after 48 hrs; format: functional
Aspergillus flavus [24] = assay: Antifungal activity against Aspergillus flavus at >100 ug/mL after 48 hrs; format: functional, organism-based
Pseudomonas aeruginosa [25] = assay: Antibacterial activity against Pseudomonas aeruginosa at >100 ug/mL after 24 hrs by broth dilution method; format: functional, organism-based
Talaromyces marneffei [26] = assay: Antifungal activity against Penicillium marneffei at >100 ug/mL after 48 hrs; format: functional, organism-based
[27] = system: Trichophyton mentagrophytes; assay: Antifungal activity against Trichophyton mentagrophytes at >100 ug/mL after 48 hrs; format: functional, organism-based
Candida albicans [28] = assay: Antifungal activity against Candida albicans at >100 ug/mL after 48 hrs; format: functional, organism-based

MIC (Pseudomonas aeruginosa [2]) | MIC [3] | MIC (Aspergillus flavus [9]) | MIC (Talaromyces marneffei [11]) | MIC (Klebsiella pneumoniae [12]) | MIC (Candida albicans [13]) | MIC (Streptococcus pyogenes [15]) | MIC (Staphylococcus aureus [16]) | MIC (Aspergillus fumigatus [20]) | MIC (Escherichia coli [22]) | Structure (SMILES) | inhibition zone (IZ) (Streptococcus pyogenes [1]) | inhibition zone (IZ) (Klebsiella pneumoniae [4]) | inhibition zone (IZ) (Aspergillus flavus [5]) | inhibition zone (IZ) (Pseudomonas aeruginosa [6]) | inhibition zone (IZ) (Talaromyces marneffei [8]) | inhibition zone (IZ) (Staphylococcus aureus [10]) | inhibition zone (IZ) [14] | inhibition zone (IZ) (Candida albicans [17]) | inhibition zone (IZ) (Escherichia coli [19]) | inhibition zone (IZ) (Aspergillus fumigatus [23]) | further results
12.5 µg/mL (≈ 32.6 µM) | 12.5 µg/mL (≈ 32.6 µM) | 6.25 µg/mL (≈ 16.3 µM) | 25 µg/mL (≈ 65.1 µM) | 6.25 µg/mL (≈ 16.3 µM) | 12.5 µg/mL (≈ 32.6 µM) | 25 µg/mL (≈ 65.1 µM) | 12.5 µg/mL (≈ 32.6 µM) |  |  | COc1ccc(-c2csc3nnc(Cc4ccc(Cl)cc4)c(=O)n23)cc1 | 10 mm | 19 mm | 19 mm | 14 mm | 9 mm | 12 mm | 14 mm | 11 mm |  |  | inhibition (Aspergillus fumigatus [7]): inactive; inhibition (Escherichia coli [18]): inactive
25 µg/mL (≈ 62.7 µM) | 25 µg/mL (≈ 62.7 µM) |  | 6.25 µg/mL (≈ 15.7 µM) |  | 6.25 µg/mL (≈ 15.7 µM) | 25 µg/mL (≈ 62.7 µM) | 25 µg/mL (≈ 62.7 µM) | 6.25 µg/mL (≈ 15.7 µM) | 6.25 µg/mL (≈ 15.7 µM) | O=c1c(Cc2ccc(Cl)cc2)nnc2scc(-c3ccc([N+](=O)[O-])cc3)n12 | 9 mm |  |  | 8 mm | 21 mm | 9 mm | 7 mm | 18 mm | 25 mm | 15 mm | inhibition (Klebsiella pneumoniae [21]): inactive; inhibition (Aspergillus flavus [24]): inactive
6.25 µg/mL (≈ 14.8 µM) | 6.25 µg/mL (≈ 14.8 µM) | 6.25 µg/mL (≈ 14.8 µM) | 6.25 µg/mL (≈ 14.8 µM) | 6.25 µg/mL (≈ 14.8 µM) | 6.25 µg/mL (≈ 14.8 µM) | 6.25 µg/mL (≈ 14.8 µM) | 6.25 µg/mL (≈ 14.8 µM) | 6.25 µg/mL (≈ 14.8 µM) | 6.25 µg/mL (≈ 14.8 µM) | O=c1c(Cc2ccc(Cl)cc2Cl)nnc2scc(-c3ccc(Cl)cc3)n12 | 23 mm | 19 mm | 21 mm | 32 mm | 23 mm | 21 mm | 21 mm | 18 mm | 29 mm | 24 mm | 
6.25 µg/mL (≈ 16.1 µM) | 6.25 µg/mL (≈ 16.1 µM) | 6.25 µg/mL (≈ 16.1 µM) | 6.25 µg/mL (≈ 16.1 µM) | 6.25 µg/mL (≈ 16.1 µM) | 6.25 µg/mL (≈ 16.1 µM) | 6.25 µg/mL (≈ 16.1 µM) | 6.25 µg/mL (≈ 16.1 µM) | 6.25 µg/mL (≈ 16.1 µM) | 6.25 µg/mL (≈ 16.1 µM) | O=c1c(Cc2ccc(Cl)cc2)nnc2scc(-c3ccc(Cl)cc3)n12 | 23 mm | 20 mm | 22 mm | 33 mm | 22 mm | 23 mm | 25 mm | 20 mm | 26 mm | 22 mm | 
 | 6.25 µg/mL (≈ 14.9 µM) |  | 25 µg/mL (≈ 59.8 µM) |  | 6.25 µg/mL (≈ 14.9 µM) | 25 µg/mL (≈ 59.8 µM) | 12.5 µg/mL (≈ 29.9 µM) | 6.25 µg/mL (≈ 14.9 µM) | 6.25 µg/mL (≈ 14.9 µM) | COc1ccc(-c2csc3nnc(Cc4ccc(Cl)cc4Cl)c(=O)n23)cc1 | 8 mm |  |  |  | 9 mm | 12 mm | 17 mm | 17 mm | 22 mm | 20 mm | inhibition (Klebsiella pneumoniae [21]): inactive; inhibition (Aspergillus flavus [24]): inactive; inhibition (Pseudomonas aeruginosa [25]): inactive
6.25 µg/mL (≈ 13.4 µM) | 12.5 µg/mL (≈ 26.8 µM) | 6.25 µg/mL (≈ 13.4 µM) |  | 6.25 µg/mL (≈ 13.4 µM) | 25 µg/mL (≈ 53.5 µM) | 6.25 µg/mL (≈ 13.4 µM) | 6.25 µg/mL (≈ 13.4 µM) | 12.5 µg/mL (≈ 26.8 µM) | 6.25 µg/mL (≈ 13.4 µM) | O=c1c(Cc2ccc(Cl)cc2Cl)nnc2scc(-c3ccc(Br)cc3)n12 | 20 mm | 18 mm | 16 mm | 29 mm |  | 21 mm | 11 mm | 7 mm | 26 mm | 12 mm | inhibition (Talaromyces marneffei [26]): inactive
6.25 µg/mL (≈ 14.4 µM) |  | 12.5 µg/mL (≈ 28.8 µM) | 12.5 µg/mL (≈ 28.8 µM) |  |  | 6.25 µg/mL (≈ 14.4 µM) | 6.25 µg/mL (≈ 14.4 µM) |  | 12.5 µg/mL (≈ 28.8 µM) | O=c1c(Cc2ccc(Cl)cc2Cl)nnc2scc(-c3ccc([N+](=O)[O-])cc3)n12 | 17 mm |  | 14 mm | 27 mm | 10 mm | 20 mm |  |  | 15 mm |  | inhibition (Klebsiella pneumoniae [21]): inactive; inhibition [27]: inactive; inhibition (Aspergillus fumigatus [7]): inactive; inhibition (Candida albicans [28]): inactive
6.25 µg/mL (≈ 13.2 µM) | 6.25 µg/mL (≈ 13.2 µM) | 6.25 µg/mL (≈ 13.2 µM) | 6.25 µg/mL (≈ 13.2 µM) | 6.25 µg/mL (≈ 13.2 µM) | 6.25 µg/mL (≈ 13.2 µM) | 6.25 µg/mL (≈ 13.2 µM) | 6.25 µg/mL (≈ 13.2 µM) | 6.25 µg/mL (≈ 13.2 µM) | 6.25 µg/mL (≈ 13.2 µM) | O=c1c(Cc2ccc(Cl)cc2Cl)nnc2scc(-c3cc(F)c(Cl)cc3Cl)n12 | 24 mm | 19 mm | 21 mm | 31 mm | 25 mm | 21 mm | 22 mm | 20 mm | 29 mm | 24 mm | 
12.5 µg/mL (≈ 28.9 µM) | 12.5 µg/mL (≈ 28.9 µM) |  |  | 6.25 µg/mL (≈ 14.4 µM) | 6.25 µg/mL (≈ 14.4 µM) | 6.25 µg/mL (≈ 14.4 µM) | 6.25 µg/mL (≈ 14.4 µM) | 25 µg/mL (≈ 57.8 µM) | 25 µg/mL (≈ 57.8 µM) | O=c1c(Cc2ccc(Cl)cc2)nnc2scc(-c3ccc(Br)cc3)n12 | 21 mm | 19 mm |  | 14 mm |  | 23 mm | 12 mm | 17 mm | 9 mm | 8 mm | inhibition (Talaromyces marneffei [26]): inactive; inhibition (Aspergillus flavus [24]): inactive
6.25 µg/mL (≈ 14.2 µM) | 6.25 µg/mL (≈ 14.2 µM) | 6.25 µg/mL (≈ 14.2 µM) | 6.25 µg/mL (≈ 14.2 µM) | 6.25 µg/mL (≈ 14.2 µM) | 6.25 µg/mL (≈ 14.2 µM) | 6.25 µg/mL (≈ 14.2 µM) | 6.25 µg/mL (≈ 14.2 µM) | 6.25 µg/mL (≈ 14.2 µM) | 6.25 µg/mL (≈ 14.2 µM) | O=c1c(Cc2ccc(Cl)cc2)nnc2scc(-c3cc(F)c(Cl)cc3Cl)n12 | 24 mm | 18 mm | 18 mm | 29 mm | 25 mm | 21 mm | 21 mm | 17 mm | 27 mm | 25 mm | 

Structure (SMILES) | MIC (Pseudomonas aeruginosa [2]) | MIC [3] | MIC (Aspergillus flavus [9]) | MIC (Talaromyces marneffei [11]) | MIC (Klebsiella pneumoniae [12]) | MIC (Candida albicans [13]) | MIC (Streptococcus pyogenes [15]) | MIC (Staphylococcus aureus [16]) | MIC (Aspergillus fumigatus [20]) | MIC (Escherichia coli [22]) | inhibition zone (IZ) (Streptococcus pyogenes [1]) | inhibition zone (IZ) (Klebsiella pneumoniae [4]) | inhibition zone (IZ) (Aspergillus flavus [5]) | inhibition zone (IZ) (Pseudomonas aeruginosa [6]) | inhibition zone (IZ) (Talaromyces marneffei [8]) | inhibition zone (IZ) (Staphylococcus aureus [10]) | inhibition zone (IZ) [14] | inhibition zone (IZ) (Candida albicans [17]) | inhibition zone (IZ) (Escherichia coli [19]) | inhibition zone (IZ) (Aspergillus fumigatus [23]) | further results
O=C(O)c1cn(C2CC2)c2cc(N3CCNCC3)c(F)cc2c1=O [CIPROFLOXACIN] |  |  |  |  | 6.25 µg/mL (≈ 18.9 µM) |  | 6.25 µg/mL (≈ 18.9 µM) |  |  |  | 25 mm | 22 mm |  | 33 mm |  | 23 mm |  |  | 30 mm |  | 
C[C@@H]1[C@H](O)[C@@H](C)/C=C/C=C/C=C/C=C/C=C/C=C/C=C/[C@H](O[C@@H]2O[C@H](C)[C@@H](O)[C@H](N)[C@@H]2O)C[C@@H]2O[C@](O)(C[C@@H](O)C[C@@H](O)[C@H](O)CC[C@@H](O)C[C@@H](O)CC(=O)O[C@H]1C)C[C@H](O)[C@H]2C(=O)O [AMPHOTERICIN B] |  | 6.25 µg/mL (≈ 6.76 µM) | 6.25 µg/mL (≈ 6.76 µM) | 6.25 µg/mL (≈ 6.76 µM) |  | 6.25 µg/mL (≈ 6.76 µM) |  |  | 6.25 µg/mL (≈ 6.76 µM) |  |  |  | 21 mm |  | 25 mm |  | 23 mm | 19 mm |  | 25 mm | 
